Experimental data: the supplement of paper PMC10307832

Tests used:
Assay in all cases: relative viability (nuclei count vs DMSO), 5 days (fraction); higher = more cells survive
[1] = compound: CCn1c(-c2nonc2N)nc2c(C#CC(C)(C)O)ncc(OC[C@H]3CCCNC3)c21 + CCNC(=O)c1noc(-c2cc(C(C)C)c(O)cc2O)c1-c1ccc(CN2CCOCC2)cc1 [Luminespib] (partner 0.01 µM)
Procedure, shortened: (§1)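 Cells from lung cancer lines were seeded into 1536-well plates and, one day later, dosed by pin tool. Treatments were either a single drug or a fixed dose of an anchor drug with five library-drug doses (not always all listed) in √10 steps. After 5 days, nuclei were stained in a one-step fixation (final 0.05% Triton X-100, 1% formaldehyde, 1 ug/ml Hoechst) and counted on 4× images, and relative viability is the treated-to-vehicle nuclei ratio, as the median of duplicate plates.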

BAM7 + Lapatinib = compound: CCOC1=CC=CC=C1N=NC2=C(NN(C2=O)C3=NC(=CS3)C4=CC=CC=C4)C [BAM7] + CS(=O)(=O)CCNCc1ccc(-c2ccc3ncnc(Nc4ccc(OCc5cccc(F)c5)c(Cl)c4)c3c2)o1 [Lapatinib] (partner 2 µM)
Procedure, shortened: as §1

BAM7 + Navitoclax = compound: CCOC1=CC=CC=C1N=NC2=C(NN(C2=O)C3=NC(=CS3)C4=CC=CC=C4)C [BAM7] + CC1(C)CCC(c2ccc(Cl)cc2)=C(CN2CCN(c3ccc(C(=O)NS(=O)(=O)c4ccc(N[C@H](CCN5CCOCC5)CSc5ccccc5)c(S(=O)(=O)C(F)(F)F)c4)cc3)CC2)C1 [Navitoclax] (partner 0.5 µM)
Procedure, shortened: as §1

[2] = compound: CCn1c(-c2nonc2N)nc2c(C#CC(C)(C)O)ncc(OC[C@H]3CCCNC3)c21 + Cc1nc(Nc2ncc(C(=O)Nc3c(C)cccc3Cl)s2)cc(N2CCN(CCO)CC2)n1 [Dasatinib] (partner 0.075 µM)
Procedure, shortened: as §1

Cell Line	relative viability ([1]; first compound 0.01 µM)	relative viability ([1]; first compound 0.03162 µM)	relative viability ([1]; first compound 0.1 µM)	relative viability ([1]; first compound 0.3162 µM)	relative viability ([1]; first compound 1 µM)	relative viability (BAM7 + Lapatinib; first compound 0.5 µM)	relative viability (BAM7 + Lapatinib; first compound 5 µM)	relative viability (BAM7 + Lapatinib; first compound 15.81 µM)	relative viability (BAM7 + Lapatinib; first compound 50 µM)	relative viability (BAM7 + Navitoclax; first compound 0.5 µM)	relative viability (BAM7 + Navitoclax; first compound 5 µM)	relative viability (BAM7 + Navitoclax; first compound 15.81 µM)	relative viability (BAM7 + Navitoclax; first compound 50 µM)	relative viability ([2]; first compound 0.01 µM)	relative viability ([2]; first compound 0.03162 µM)	relative viability ([2]; first compound 0.1 µM)	relative viability ([2]; first compound 0.3162 µM)	relative viability ([2]; first compound 1 µM)
NCI-H3122	0.0785	0.0949	0.101	0.072	0.0984	1.09	1.04	1.04	1.03	1.07	0.984	1.06	1.07	0.68	0.859	0.857	0.852	0.637
COR-L23	0.669	0.642	0.696	0.57	0.568	1.28	1.14	0.914	1.02	1.03	1.15	0.986	0.955	0.521	0.445	0.505	0.467	0.534
NCI-H2087	0.128	0.154	0.165	0.152	0.163	1.12	1.17	1.08	0.934	0.92	1.13	0.942	1.02	0.738	0.751	0.936	0.795	0.913
LC-2-ad	0.964	0.967	1.1	1.04	0.974	1.09	0.948	0.933	0.859	0.548	0.532	0.422	0.464	0.384	0.487	0.509	0.414	0.641
